The record followed here is patent US8524755B2 (priority 2009, dated 2013).

For one assay, the system named is PCP. Kind of assay: Binding PCP (aa). Also on record: species or system rat. The protocol: (§1) Radioligand binding assay methods utilized to measure the activity of compounds of the invention will be familiar to those skilled in the art. In each assay case, the assay components such as, for example, the cell-type, ligand, reference compound and the like, will be familiar to practitioners of such an assay.
(§2) Analysis and Expression of Results: Compounds of the invention were tested in the biochemical assays and percent inhibition of specific binding was determined. The specific ligand binding to the receptors is defined as the difference between the total binding and the nonspecific binding determined in the presence of an excess of unlabelled ligand. The results are expressed as a percent inhibition of control specific binding (100−((measured specific binding/control specific binding)×100)) obtained in the presence of test compounds.

Another assay concerns the target T1, Vasopressin V2 (h) (Homo sapiens, UniProt P30518).
T1 construct: expressed in transfected cells; host or cells: CHO cells
As to the kind of experiment: Binding V2 (h) (ag). Conditions: read-out: % Inhibition of Control Specific Binding @ 10 μM. On the procedure:
as §1, §2

The next assay has as its target T2, Cannabinoid CB1 (h) (Homo sapiens, UniProt P21554).
T2 construct: expressed in transfected cells; host or cells: CHO cells
As to the kind of experiment: Binding CB1 (h) (ag). As to conditions: read-out: % Inhibition of Control Specific Binding @ 10 μM. The protocol: as §1, §2

The test system of another assay is Thyroid hormone TR (TH). Kind of assay: Binding TR (TH) (ag). Also noted: species or system rat. The protocol: as §1, §2
For the next assay, the system named is Na^+ channel (site 2). As to the kind of experiment: Binding Na+ channel (site 2) (aa). Also noted: species or system rat. The protocol:
as §1, §2

A further assay concerns NMDA. Kind of assay: Binding NMDA (aa). Also noted: species or system rat. On the procedure: as §1, §2
Another assay concerns SKCa channel. Kind of assay: Binding SKCa channel (aa). Also on record: species or system rat. The protocol: as §1, §2
The target in another assay is T3, CysLT1 (LTD4) (h) (Homo sapiens, UniProt Q9Y271).
T3 construct: expressed in transfected cells; host or cells: CHO cells
T3 sequence (Q9Y271 1-337): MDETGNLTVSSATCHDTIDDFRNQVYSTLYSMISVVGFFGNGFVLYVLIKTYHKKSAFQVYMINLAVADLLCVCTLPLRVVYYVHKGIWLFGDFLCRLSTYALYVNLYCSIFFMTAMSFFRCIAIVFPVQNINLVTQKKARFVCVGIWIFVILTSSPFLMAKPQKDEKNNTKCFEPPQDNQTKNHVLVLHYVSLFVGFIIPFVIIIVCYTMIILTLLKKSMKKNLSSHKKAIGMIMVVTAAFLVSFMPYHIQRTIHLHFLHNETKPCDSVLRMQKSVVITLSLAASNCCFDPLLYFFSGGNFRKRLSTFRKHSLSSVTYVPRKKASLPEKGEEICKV
Kind of assay: Binding CysLT1 (LTD4) (ag). As to conditions: read-out: % Inhibition of Control Specific Binding @ 10 μM. On the procedure:
as §1, §2

For the next assay, the system named is σ (ns). As to the kind of experiment: Binding σ (ns) (ag). Also noted: species or system rat. On the procedure:
as §1, §2

The target of a further assay is T4, Endothelin ETA (h) (Homo sapiens, UniProt P25101).
T4 construct: expressed in transfected cells; host or cells: CHO cells
T4 sequence (P25101 21-427): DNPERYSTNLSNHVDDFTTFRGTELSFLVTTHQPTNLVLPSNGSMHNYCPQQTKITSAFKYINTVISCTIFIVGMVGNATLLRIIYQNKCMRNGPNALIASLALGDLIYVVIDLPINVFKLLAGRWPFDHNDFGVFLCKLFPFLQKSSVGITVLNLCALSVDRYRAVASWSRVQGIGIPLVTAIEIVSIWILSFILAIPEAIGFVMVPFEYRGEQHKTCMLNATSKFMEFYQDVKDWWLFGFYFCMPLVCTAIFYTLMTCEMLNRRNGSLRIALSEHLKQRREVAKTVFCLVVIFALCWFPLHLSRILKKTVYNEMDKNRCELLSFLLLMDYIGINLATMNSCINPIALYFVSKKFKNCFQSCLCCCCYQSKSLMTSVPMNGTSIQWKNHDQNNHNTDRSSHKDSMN
Kind of assay: Binding ETA (h) (ag). Conditions: read-out: % Inhibition of Control Specific Binding @ 10 μM. On the procedure:
as §1, §2

A further assay deals with T5, 5-HT transporter (h) (Homo sapiens, UniProt P31645).
T5 construct: expressed in transfected cells; host or cells: CHO cells
As to the kind of experiment: Binding 5-HT transporter (h) (aa). Conditions: read-out: % Inhibition of Control Specific Binding @ 10 μM. The protocol: as §1, §2

Another assay deals with T6, Dopamine D3 (h) (Homo sapiens, UniProt P35462).
T6 construct: expressed in transfected cells; host or cells: CHO cells
As to the kind of experiment: Binding D3 (h) (aa). Conditions: read-out: % Inhibition of Control Specific Binding @ 10 μM. The protocol:
as §1, §2

The target in a further assay is T7, acetylcholinesterase (h) (Homo sapiens, UniProt P22303).
T7 construct: host or cells: HEK-293 cells
As to the kind of experiment: Enzyme assay acetylcholinesterase (h). As to conditions: read-out: % Inhibition of Control Values @ 10 μM. Format: biochemical. The source says: The enzyme assays provided below will be familiar to those skilled in the art.
Analysis and Expression of Results: The results are expressed as a percent of control specific activity ((measured specific activity/control specific activity)×100) obtained in the presence of the test compounds.

Another assay concerns the target T8, Bradykinin B2 (h) (Homo sapiens, UniProt P30411).
T8 construct: expressed in transfected cells; host or cells: CHO cells
T8 sequence (P30411 1-391): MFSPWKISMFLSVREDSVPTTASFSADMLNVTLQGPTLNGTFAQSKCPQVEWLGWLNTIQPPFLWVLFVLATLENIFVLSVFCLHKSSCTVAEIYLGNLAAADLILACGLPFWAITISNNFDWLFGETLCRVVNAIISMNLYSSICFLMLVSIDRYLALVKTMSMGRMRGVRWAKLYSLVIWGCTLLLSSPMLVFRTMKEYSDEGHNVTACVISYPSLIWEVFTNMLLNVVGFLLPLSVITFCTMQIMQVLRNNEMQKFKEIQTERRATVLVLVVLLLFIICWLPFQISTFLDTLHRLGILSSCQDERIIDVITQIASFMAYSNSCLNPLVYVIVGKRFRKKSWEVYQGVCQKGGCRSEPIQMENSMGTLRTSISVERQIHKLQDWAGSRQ
Kind of assay: Binding B2 (h) (ag). Conditions: read-out: % Inhibition of Control Specific Binding @ 10 μM. The protocol:
as §1, §2

In assay [1] the test system is Ca^2+ channel (L, diltiazem site) (benzothiazepines). As to the kind of experiment: Binding Ca2+ channel (L, diltiazem site) (aa). Also on record: species or system rat. The protocol: as §1, §2
In another assay the target is T9, NOP (ORL1) (h) (Homo sapiens, UniProt P41146).
T9 construct: expressed in transfected cells; host or cells: HEK-293 cells
Kind of assay: Binding NOP (ORL1) (h) (ag). Conditions: read-out: % Inhibition of Control Specific Binding @ 10 μM. On the procedure:
as §1, §2

The next assay concerns the target T10, Angiotensin AT1 (h) (Homo sapiens, UniProt P30556).
T10 construct: expressed in transfected cells; host or cells: HEK-293 cells
T10 sequence (P30556 1-359): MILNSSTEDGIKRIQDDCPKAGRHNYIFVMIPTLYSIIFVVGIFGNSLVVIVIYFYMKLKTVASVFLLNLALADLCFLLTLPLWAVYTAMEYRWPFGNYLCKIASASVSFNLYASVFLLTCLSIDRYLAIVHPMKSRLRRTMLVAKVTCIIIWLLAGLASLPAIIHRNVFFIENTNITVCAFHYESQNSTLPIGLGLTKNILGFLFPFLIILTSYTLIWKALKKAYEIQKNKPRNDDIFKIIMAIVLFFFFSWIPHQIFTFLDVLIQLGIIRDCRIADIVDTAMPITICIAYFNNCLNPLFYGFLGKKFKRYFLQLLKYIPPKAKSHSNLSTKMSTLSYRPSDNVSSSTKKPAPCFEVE
As to the kind of experiment: Binding AT1 (h) (aa). Conditions: read-out: % Inhibition of Control Specific Binding @ 10 μM. The protocol:
as §1, §2

T2 sequence (P21554 whole entry): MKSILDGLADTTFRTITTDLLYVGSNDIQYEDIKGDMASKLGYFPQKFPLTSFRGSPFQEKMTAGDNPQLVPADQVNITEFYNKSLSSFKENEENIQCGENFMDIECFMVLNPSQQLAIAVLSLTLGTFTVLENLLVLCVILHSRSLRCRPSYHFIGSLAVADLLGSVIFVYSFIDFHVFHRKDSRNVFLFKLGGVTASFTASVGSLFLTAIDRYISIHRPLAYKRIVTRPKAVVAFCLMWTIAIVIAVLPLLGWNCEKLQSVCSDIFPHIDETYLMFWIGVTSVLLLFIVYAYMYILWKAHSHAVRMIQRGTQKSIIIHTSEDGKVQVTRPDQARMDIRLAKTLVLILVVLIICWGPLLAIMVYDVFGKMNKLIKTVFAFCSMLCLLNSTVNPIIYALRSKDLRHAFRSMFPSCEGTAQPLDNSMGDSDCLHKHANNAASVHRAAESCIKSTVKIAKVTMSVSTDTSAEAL
T9 sequence (P41146 whole entry): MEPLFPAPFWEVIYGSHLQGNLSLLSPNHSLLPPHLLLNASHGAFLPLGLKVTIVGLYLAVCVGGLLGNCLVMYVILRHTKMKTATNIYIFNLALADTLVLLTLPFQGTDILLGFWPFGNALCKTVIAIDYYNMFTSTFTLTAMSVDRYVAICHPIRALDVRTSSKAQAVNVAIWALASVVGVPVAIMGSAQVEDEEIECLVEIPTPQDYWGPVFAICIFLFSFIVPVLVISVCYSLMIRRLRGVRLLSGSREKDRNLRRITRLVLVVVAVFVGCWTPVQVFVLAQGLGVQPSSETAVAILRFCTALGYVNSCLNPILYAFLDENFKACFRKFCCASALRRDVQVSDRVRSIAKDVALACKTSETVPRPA
T5 sequence (P31645 whole entry): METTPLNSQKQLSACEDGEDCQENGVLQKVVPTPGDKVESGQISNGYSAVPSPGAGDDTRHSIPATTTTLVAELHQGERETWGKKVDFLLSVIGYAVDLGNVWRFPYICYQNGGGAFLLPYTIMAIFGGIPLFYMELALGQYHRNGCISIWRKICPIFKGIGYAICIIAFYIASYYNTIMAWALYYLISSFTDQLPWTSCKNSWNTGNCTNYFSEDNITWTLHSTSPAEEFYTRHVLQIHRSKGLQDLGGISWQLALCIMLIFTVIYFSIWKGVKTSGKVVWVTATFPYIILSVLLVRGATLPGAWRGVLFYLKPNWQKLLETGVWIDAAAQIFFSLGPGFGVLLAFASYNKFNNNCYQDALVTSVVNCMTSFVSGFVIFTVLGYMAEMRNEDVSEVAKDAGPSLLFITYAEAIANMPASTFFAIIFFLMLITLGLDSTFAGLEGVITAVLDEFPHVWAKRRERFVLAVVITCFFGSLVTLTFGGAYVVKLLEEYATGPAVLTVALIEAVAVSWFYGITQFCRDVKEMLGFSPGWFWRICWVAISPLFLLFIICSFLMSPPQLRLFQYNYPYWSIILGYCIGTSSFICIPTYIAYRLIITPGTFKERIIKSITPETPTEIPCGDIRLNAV
T6 sequence (P35462 whole entry): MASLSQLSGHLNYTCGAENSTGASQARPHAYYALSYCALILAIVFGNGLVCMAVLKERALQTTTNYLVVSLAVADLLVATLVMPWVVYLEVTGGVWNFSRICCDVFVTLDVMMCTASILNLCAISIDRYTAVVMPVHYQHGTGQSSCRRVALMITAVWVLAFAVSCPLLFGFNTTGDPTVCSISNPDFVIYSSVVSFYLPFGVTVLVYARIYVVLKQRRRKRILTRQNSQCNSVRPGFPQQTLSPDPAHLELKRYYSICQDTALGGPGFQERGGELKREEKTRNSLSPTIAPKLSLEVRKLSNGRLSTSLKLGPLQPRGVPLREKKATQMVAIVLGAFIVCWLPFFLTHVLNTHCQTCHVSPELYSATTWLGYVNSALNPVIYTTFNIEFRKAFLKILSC
T7 sequence (P22303 32-614): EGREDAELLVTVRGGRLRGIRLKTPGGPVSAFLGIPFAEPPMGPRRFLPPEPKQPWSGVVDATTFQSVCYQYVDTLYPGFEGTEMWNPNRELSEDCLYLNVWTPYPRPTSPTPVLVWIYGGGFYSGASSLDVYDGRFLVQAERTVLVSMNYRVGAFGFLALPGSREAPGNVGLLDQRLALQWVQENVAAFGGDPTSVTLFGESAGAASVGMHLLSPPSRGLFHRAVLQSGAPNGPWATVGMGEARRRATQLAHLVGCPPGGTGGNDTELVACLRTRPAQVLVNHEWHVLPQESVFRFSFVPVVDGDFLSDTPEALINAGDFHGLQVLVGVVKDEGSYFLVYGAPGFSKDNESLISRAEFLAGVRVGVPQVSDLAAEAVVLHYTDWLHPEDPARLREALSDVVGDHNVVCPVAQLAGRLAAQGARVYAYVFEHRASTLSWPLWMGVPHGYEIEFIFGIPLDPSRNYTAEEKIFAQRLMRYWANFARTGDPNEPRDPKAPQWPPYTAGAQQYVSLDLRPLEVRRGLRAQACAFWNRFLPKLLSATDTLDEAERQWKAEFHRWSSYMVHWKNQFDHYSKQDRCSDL
T1 sequence (P30518 whole entry): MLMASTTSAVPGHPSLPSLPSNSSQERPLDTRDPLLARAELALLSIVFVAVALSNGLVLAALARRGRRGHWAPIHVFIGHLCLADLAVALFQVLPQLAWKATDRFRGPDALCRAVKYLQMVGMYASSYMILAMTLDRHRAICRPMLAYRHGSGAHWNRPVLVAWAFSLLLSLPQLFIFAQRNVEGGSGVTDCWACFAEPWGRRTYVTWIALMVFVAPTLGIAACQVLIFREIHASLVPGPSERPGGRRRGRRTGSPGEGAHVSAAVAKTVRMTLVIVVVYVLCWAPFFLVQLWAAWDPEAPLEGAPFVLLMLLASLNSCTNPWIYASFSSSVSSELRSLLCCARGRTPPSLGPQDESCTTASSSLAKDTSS

For `CNC(=O)c1ccc(N2C(=O)N(c3ccc(C#N)c(C(F)(F)F)c3)C(=O)C2(C)C)cc1F` [(MIV), 4-(3-(4-cyano-3-(trifluoromethyl)phenyl)-5,5-dimethyl-2,4-dioxoimidazolidin-1-yl)-2-fluoro-N-methylbenzamide], the “% Inhibition of Control Specific Binding @ 10 μM” value (from here on “% Inhibition”) is 4% in the assay on PCP; −2% in the assay with Thyroid hormone TR (TH); 5% in the assay with Na^+ channel (site 2); −41% with NMDA; −10% in the assay with SKCa channel; 50% with σ (ns). The “% Inhibition” value in assay [1] amounted to 1%. Besides, the inhibition (commonly the relative decrease from the control value, in per cent) at 10 µM at Vasopressin V2 (h) is -1%; on Cannabinoid CB1 (h) it was 4%; on CysLT1 (LTD4) (h), 11%; on Endothelin ETA (h) it was -27%; on 5-HT transporter (h) it was 18%; on Dopamine D3 (h), 7%. Also, the inhibition at 10 µM is 23% at acetylcholinesterase (h), 0% at Bradykinin B2 (h), -2% at NOP (ORL1) (h) and 0% at Angiotensin AT1 (h).
Take `CC1(C)C(=O)N(c2ccc(C#N)c(C(F)(F)F)c2)C(=O)N1c1ccc(C(N)=O)c(F)c1` [(MIII), 4-(3-(4-cyano-3-(trifluoromethyl)phenyl)-5,5-dimethyl-2,4-dioxoimidazolidin-1-yl)-2-fluorobenzamide]: the “% Inhibition” value in the assay with PCP was 2%; with Thyroid hormone TR (TH), −9%; with Na^+ channel (site 2) it was 1%; in the assay with NMDA it was 0%; in the assay with SKCa channel it was 1%; in the assay on σ (ns), 34%. Also, the “% Inhibition” value in [1] is recorded as −2%. For the same compound, the inhibition at 10 µM is 4% on Vasopressin V2 (h); 6% on Cannabinoid CB1 (h); 11% at CysLT1 (LTD4) (h); -12% at Endothelin ETA (h); 13% on 5-HT transporter (h); 0% on Dopamine D3 (h). For the same compound, the inhibition at 10 µM is -1% at acetylcholinesterase (h), -3% at Bradykinin B2 (h), 0% on NOP (ORL1) (h) and 6% on Angiotensin AT1 (h).
Consider `CC1(C)C(=O)N(c2ccc(C#N)c(C(F)(F)F)c2)C(=S)N1c1ccc(C(=O)O)c(F)c1` [(MI), 4-(3-(4-cyano-3-(trifluoromethyl)phenyl)-5,5-dimethyl-4-oxo-2-thioxoimidazolidin-1-yl)-2-fluorobenzoic acid], for which the “% Inhibition” value in the assay on PCP is given as 0%; in the assay on Thyroid hormone TR (TH), −7%; in the assay with Na^+ channel (site 2), −5%; in the assay with NMDA it was 2%; with SKCa channel, −6%; with σ (ns), 20%. In addition, the “% Inhibition” value in assay [1] is reported as 2%. The inhibition at 10 µM is 5% on Vasopressin V2 (h); -20% on Cannabinoid CB1 (h); 3% at CysLT1 (LTD4) (h); -21% on Endothelin ETA (h); 1% on 5-HT transporter (h); 7% at Dopamine D3 (h). Also, the inhibition at 10 µM at acetylcholinesterase (h) was 51%; on Bradykinin B2 (h), 2%; at NOP (ORL1) (h), -10%; at Angiotensin AT1 (h), 11%.
For `CC1(C)C(=O)N(c2ccc(C#N)c(C(F)(F)F)c2)C(=S)N1c1ccc(C(N)=O)c(F)c1` [(MII), 4-(3-(4-Cyano-3-(trifluoromethyl)phenyl)-5,5-dimethyl-4-oxo-2-thioxoimidazolidin-1-yl)-2-fluorobenzamide], the “% Inhibition” value in the assay with PCP is recorded as 5%; in the assay with Thyroid hormone TR (TH), 0%; in the assay with Na^+ channel (site 2), 13%; in the assay with NMDA it was 5%; in the assay on SKCa channel it was 4%; with σ (ns) it was 39%. In assay [1], the “% Inhibition” value came out at 22%. In addition, the inhibition at 10 µM is 3% at Vasopressin V2 (h); 11% on Cannabinoid CB1 (h); 18% at CysLT1 (LTD4) (h); -16% on Endothelin ETA (h); 16% on 5-HT transporter (h); 11% on Dopamine D3 (h). The inhibition at 10 µM is 9% on acetylcholinesterase (h), -12% on Bradykinin B2 (h), -4% at NOP (ORL1) (h) and 0% at Angiotensin AT1 (h).
